In data set [1] the test system is thromboxanes. Particulars: submicrogram concentrations of PGE2; cited from earlier work.
For data set [2], the system named is human blood-platelet aggregation. The experiment in a line: Inhibition of human blood-platelet aggregation (general statement).
The subject of data set [3] is prostaglandin formation. Nature of the data set: Inhibition of prostaglandin formation (general statement).
A short description of data set [4]: Ulcerogenicity (general statement).
A short description of data set [5]: Toxicity (general statement).
For data set [6], the system named is Collagen-Induced Platelet Aggregation. The experiment in a line: Inhibition of collagen-induced platelet aggregation in human platelet-rich plasma. The data set is classed as cell-based. As to the method: (§1) Venous blood was collected from human volunteers in siliconized 20 ml. […] Platelet rich plasma (PRP) was separated from the red blood cells by centrifugation at 180×g for 15 minutes at room temperature. Platelet poor plasma (PPP) was prepared by centrifuging PRP at 1000×g for 2 minutes.
(§2) Techniques established by Born et al., J. Physiol. […] PRP (1 ml.) was added to a siliconized cuvette containing a siliconized stirring bar and placed in a densitometer maintained at 37° C. and stirred at 1000 RPM. Various concentrations of test compounds were added in 50 μl of saline and incubated with PRP for 5 minutes. Aggregation was initiated by the addition of sufficient concentrations of ADP (Sigma Chemical Co.), epinephrine HCl (Parke, Davis & Co., Detroit, Michigan), or human mammary gland collagen (obtained from Roosevelt Hospital, N.Y.) to give about 60% of maximum aggregation response. The light transmission through PPP was used to determine maximum response. The percent inhibition of aggregation caused by the drug was calculated from the strip chart recordings at the point of maximum collagen response.

The subject of data set [7] is platelet aggregation. Conditions: cited from earlier work.
For data set [8], the system named is Collagen-Induced Platelet Aggregation. Nature of the data set: Effect of compounds in whole blood: collagen-induced platelet aggregation after incubation in whole blood. The data set is classed as cell-based, human. Particulars: incubation in whole blood. The method, then:
Aliquots of citrated human blood (10 ml.) were exposed to different concentrations of the "nitrile" by mechanically shaking at room temperature for 5 minutes.

Data set [9] has as its system serum PGF2α. The experiment in a line: Inhibition of prostaglandin formation: serum PGF2α by radioimmunoassay (rats). The data set is classed as in vivo, male rats. Particulars: rats; for ED50: Rattus norvegicus, 1 h; for serum PGF2α ED50: 60 min.
The subject of data set [10] is platelet prostaglandin formation. Particulars: cited from earlier work.
In data set [11] the test system is arachidonic acid induced diarrhea. The experiment in a line: Arachidonic acid diarrhea prevention (mice). The data set is classed as in vivo, Carworth Farm CF-1 male mice. The method, then:
Carworth Farm CF-1 male mice weighing 18-20 grams were administered the test compound by either the oral or intraperitoneal route one hour prior to the intraperitoneal administration of 4 mg/kg of arachidonic acid (Hoffmann-La Roche Inc.). […] The diarrhea was graded on paper towels as follows: 0=solid pellet or no bowel movement; 1=slightly soft pellet with little or no wet ring formation; 2=moderately soft pellet with definite wet ring formation; 3=soft pellet with large wet ring formation; and 4=amorphous pellet with very large wet ring formation.
The calculation of the ED50 was made according to the method of Miller et al., Proc. Soc.

The test system of data set [12] is Epinephrine induced aggregation. Nature of the data set: Inhibition of epinephrine-induced platelet aggregation (second wave) in human platelet-rich plasma. The data set is classed as cell-based. Conditions: incubation in human citrated platelet-rich plasma. As to the method: as §1, §2
Data set [13] is described as follows: Gastric ulcer induction (rats). Further details: species or system male Wistar rats. Particulars: rat, in vivo, po, rats; read-out: Ulcer incidence ED50. The method, then:
The test is a modification of that described by Brodie et al., Gastroenterology, 53, pages 604-610 (1967). Male Wistar rats (Royal Hart Laboratories) were deprived of food for 18 hours prior to testing. Tap water was permitted ad libitum. Test compounds were administered orally four hours to autopsy. The rats were sacrificed under ethyl ether anesthesia, opened along the ventral midline and the stomachs removed. The stomach was divided along the lesser curvature, everted, rinsed in saline, and examined for the presence of focal hemorrhage. Ulcers were rated on an all or none basis for incidence and, in addition, each stomach is graded for severity of ulcers formed. Ulcer scores: 0=none, 1=trace, 2=mild, 3=moderate, and 4=severe. The results of the ulcer scores obtained were subjected to statistical analysis by the student `t` test.

Data set [14] concerns ADP induced aggregation. Nature of the data set: Inhibition of ADP-induced platelet aggregation (second wave) in human platelet-rich plasma. The data set is classed as cell-based. Particulars: incubation in human citrated platelet-rich plasma. As to the method:
as §1, §2

The nature of data set [15]: Acute toxicity in mice. Particulars: mouse, in vivo. The method, then: CF-IS mice of both sexes weighing 17-25 grams were used. The compounds were ground in a mortar and suspended in 5% gum acacia for oral or intraperitoneal administration. Eight to ten mice were used per dose level. […] The LD50 was calculated by the method of Miller et al., Proc. Soc. Exp. Biol. Med., 57, pages 261-264 (1944).

Data set [16] relates to biosynthesis of thromboxanes. Particulars: cited from earlier work.
[17] abbreviates: incubation in human citrated platelet-rich plasma, read-out: IC50 collagen.

With `CCCCC[C@H](O)/C=C/[C@H]1[C@H](O)CC(=O)[C@@H]1C/C=C\CCCC(=O)O` [PGE2], the “potentiation of biological effects of thromboxanes” value in data set [1] is listed as ≤ 700%.

With `NC(=O)c1[nH]c2ccc(C(O)(C(F)(F)F)C(F)(F)F)cc2c1-c1ccccc1` [amide, 3-Phenyl-5-[2,2,2-trifluoro-1-hydroxy-1-(trifluoromethyl)ethyl]indole-2-carboxamide], in data set [2], the “inhibition of human blood-platelet aggregation (in words)” value is “inhibit prostaglandin formation and human blood-platelet aggregation”. Besides, the “inhibition of prostaglandin formation (in words)” value in data set [3] is reported as “inhibit prostaglandin formation”. In data set [4], the “ulcerogenicity (in words)” value was “non-ulcerogenic”. The “toxicity (in words)” value in data set [5] is listed as “low in toxicity”. The IC50 in data set [6] (Homo sapiens, Platelet, Table 7, read-out: Inhibition of collagen-induced platelet aggregation, Activity IC50) amounted to 3000 nM.

With `CCCCC[C@H](O)/C=C/[C@H]1[C@H](O)CC(=O)[C@H]1CCCCCCC(=O)O` [Example 8-iso-PGE1, (8β,11α,13E,15S)-11,15-dihydroxy-9-oxoprost-13-en-1-oic acid], in data set [7], the “inhibition of platelet aggregation (in words)” value is “demonstrated to inhibit platelet aggregation”.

On to `CCCCCC[C@H](O)/C=C/[C@H]1[C@H](O)CC(=O)[C@@H]1CCCCCCC(=O)O` [ω-homo PGE1, (11α,13E,15S)-11,15-dihydroxy-20-methyl-9-oxoprost-13-en-1-oic acid], for which the “inhibition of platelet aggregation (in words)” value in data set [7] is reported as “demonstrated to inhibit platelet aggregation”.

`CCCCC[C@H](O)/C=C/[C@H]1[C@H](O)CC(=O)[C@@H]1CCCCCCC(=O)O` [PGE1, (11,13E,15S)-11,15-dihydroxy-9-oxoprost-13-en-1-oic acid]: the “inhibition of platelet aggregation (in words)” value in data set [7] was “demonstrated to inhibit platelet aggregation”.

Take `COc1ccc2c(c1)c(CC(=O)O)c(C)n2C(=O)c1ccc(Cl)cc1` [Indomethacin, reference compound]: the IC50 in [8] (Homo sapiens, Platelet) came to 400 nM; in data set [12] it was 2000 nM; in data set [14], 100 nM; in data set [6] (setting [17]) it was 1000 nM. In addition, the ED50 was < 1 mg/kg in data set [9] (ip); 1 mg/kg in data set [9] (po); 0.8 mg/kg in data set [11] (Mus musculus, po). Besides, the “inhibition of platelet prostaglandin formation (in words)” value in data set [10] is “known inhibitors of platelet prostaglandin formation”. The TD50 at 4 h in data set [13] was determined as 3 mg/kg. Besides, the LD50 at 120 h in data set [15] (ip) worked out at 193 mg/kg; in [15] (po), 430 mg/kg.

As for `CC(=O)Oc1ccccc1C(=O)O` [Aspirin, reference compound], the IC50 is 1500 nM in data set [8], 17000 nM in data set [12], 30000 nM in data set [14] and 30000 nM in data set [6] (setting [17]). The “serum PGF2α ED50” value in [9] (i.p.) and in [9] (p.o.) was 10 mg/kg throughout. In addition, in data set [10], the “inhibition of platelet prostaglandin formation (in words)” value is “known inhibitors of platelet prostaglandin formation”. Further, the “arachidonic acid induced diarrhea ED50” value in [11] (p.o.) was 1.3 mg/kg. For the same compound, the “inhibition of the biosynthesis of thromboxanes (in words)” value in data set [16] is “inhibits the biosynthesis of thromboxanes”. Further, the TD50 at 4 h in [13] came to 49 mg/kg. Also, the LD50 at 120 h in [15] (po) is > 1000 mg/kg.

Broadly, the IC50 is the point on the concentration scale where inhibition reaches its midpoint. One may read the ED50 as the dose that gives a 50% effect, or the effect in half of the subjects. A word on the LD50: it is the dose at which mortality reaches 50%. Read a low LD50 as greater toxicity.

Source of the values: US4156016A, “Indole compounds and process for their preparation” (Hoffmann-La Roche Inc., priority 1977, dated 1979).
